Where two headings read alike, the source gives them in different places.
Settings: crystals obtained by the crystallization process of the respective example (pH adjustment, coagulant, pH readjustment, cooling rate vary)
Procedure: As used herein, the term “bulk density” refers to the density measured based on the volume including voids generated between particles when powder is filled into a container. In particular, the density of powder which is measured after treating the powder by tapping a cylinder filled with the powder with a constant force so as to make the powder within the cylinder dense is called tapped bulk density (hereinafter, “BD”).

Structure (SMILES): CSCC[C@H](N)C(=O)O [Comparative Example 3, L-methionine, reference compound]
- BD (tapped bulk density) of the obtained L-methionine crystals: 500 g/L
- BD (tapped bulk density) of the obtained L-methionine crystals (listed as Comp. Ex. 3): 500 g/L

Structure (SMILES): CSCC[C@H](N)C(=O)O [Example 15, L-methionine]
- BD (tapped bulk density) of the obtained L-methionine crystals: 500 g/L
- BD (tapped bulk density) of the obtained L-methionine crystals (listed as Ex. 15): 500 g/L

Structure (SMILES): CSCC[C@H](N)C(=O)O [Example 9, L-methionine]
- BD (tapped bulk density) of the obtained L-methionine crystals: 560 g/L
- BD (tapped bulk density) of the obtained L-methionine crystals (listed as Ex. 9): 560 g/L

Structure (SMILES): CSCC[C@H](N)C(=O)O [Example 3, L-methionine]
- BD (tapped bulk density) of the obtained L-methionine crystals: 610 g/L
- BD (tapped bulk density) of the obtained L-methionine crystals (listed as Ex. 3): 610 g/L

Structure (SMILES): CSCC[C@H](N)C(=O)O [Example 6, L-methionine]
- BD (tapped bulk density) of the obtained L-methionine crystals: 580 g/L
- BD (tapped bulk density) of the obtained L-methionine crystals (listed as Ex. 6): 580 g/L

Structure (SMILES): CSCC[C@H](N)C(=O)O [Example 20, L-methionine]
- BD (tapped bulk density) of the obtained L-methionine crystals: 760 g/L
- BD (tapped bulk density) of the obtained L-methionine crystals (listed as Ex. 20): 760 g/L

Structure (SMILES): CSCC[C@H](N)C(=O)O [Example 10, L-methionine]
- BD (tapped bulk density) of the obtained L-methionine crystals: 580 g/L
- BD (tapped bulk density) of the obtained L-methionine crystals (listed as Ex. 10): 580 g/L

Structure (SMILES): CSCC[C@H](N)C(=O)O [Comparative Example 10, L-methionine, reference compound]
- BD (tapped bulk density) of the obtained L-methionine crystals: 630 g/L
- BD (tapped bulk density) of the obtained L-methionine crystals (listed as Comp. Ex. 10): 630 g/L

Structure (SMILES): CSCC[C@H](N)C(=O)O [Example 17, L-methionine]
- BD (tapped bulk density) of the obtained L-methionine crystals: 690 g/L
- BD (tapped bulk density) of the obtained L-methionine crystals (listed as Ex. 17): 690 g/L

Structure (SMILES): CSCC[C@H](N)C(=O)O [Comparative Example 9, L-methionine, reference compound]
- BD (tapped bulk density) of the obtained L-methionine crystals: 460 g/L
- BD (tapped bulk density) of the obtained L-methionine crystals (listed as Comp. Ex. 9): 460 g/L

Structure (SMILES): CSCC[C@H](N)C(=O)O [Comparative Example 11, L-methionine, reference compound]
- BD (tapped bulk density) of the obtained L-methionine crystals (listed as Comp. Ex. 11): 410 g/L

Structure (SMILES): CSCC[C@H](N)C(=O)O [Comparative Example 12, L-methionine, reference compound]
- BD (tapped bulk density) of the obtained L-methionine crystals: 660 g/L
- BD (tapped bulk density) of the obtained L-methionine crystals (listed as Comp. Ex. 12): 660 g/L

Structure (SMILES): CSCC[C@H](N)C(=O)O [Comparative Example 7, L-methionine, reference compound]
- BD (tapped bulk density) of the obtained L-methionine crystals: 510 g/L
- BD (tapped bulk density) of the obtained L-methionine crystals (listed as Comp. Ex. 7): 510 g/L

Structure (SMILES): CSCC[C@H](N)C(=O)O [Example 5, L-methionine]
- BD (tapped bulk density) of the obtained L-methionine crystals: 590 g/L
- BD (tapped bulk density) of the obtained L-methionine crystals (listed as Ex. 5): 590 g/L

Structure (SMILES): CSCC[C@H](N)C(=O)O [Example 21, L-methionine]
- BD (tapped bulk density) of the obtained L-methionine crystals: 800 g/L
- BD (tapped bulk density) of the obtained L-methionine crystals (listed as Ex. 21): 800 g/L

Structure (SMILES): CSCC[C@H](N)C(=O)O [Comparative Example 13, L-methionine, reference compound]
- BD (tapped bulk density) of the obtained L-methionine crystals: 400 g/L
- BD (tapped bulk density) of the obtained L-methionine crystals (listed as Comp. Ex. 13): 400 g/L

Structure (SMILES): CSCC[C@H](N)C(=O)O [Example 7, L-methionine]
- BD (tapped bulk density) of the obtained L-methionine crystals: 570 g/L
- BD (tapped bulk density) of the obtained L-methionine crystals (listed as Ex. 7): 570 g/L

Structure (SMILES): CSCC[C@H](N)C(=O)O [Example 8, L-methionine]
- BD (tapped bulk density) of the obtained L-methionine crystals: 570 g/L
- BD (tapped bulk density) of the obtained L-methionine crystals (listed as Ex. 8): 570 g/L

Structure (SMILES): CSCC[C@H](N)C(=O)O [Comparative Example 1, L-methionine, reference compound]
- BD (tapped bulk density) of the obtained L-methionine crystals: 190 g/L
- BD (tapped bulk density) of the obtained L-methionine crystals (listed as Comp. Ex. 1): 190 g/L

Structure (SMILES): CSCC[C@H](N)C(=O)O [Example 16, L-methionine]
- BD (tapped bulk density) of the obtained L-methionine crystals: 480 g/L
- BD (tapped bulk density) of the obtained L-methionine crystals (listed as Ex. 16): 480 g/L

Structure (SMILES): CSCC[C@H](N)C(=O)O [Comparative Example 6, L-methionine, reference compound]
- BD (tapped bulk density) of the obtained L-methionine crystals: 450 g/L
- BD (tapped bulk density) of the obtained L-methionine crystals (listed as Comp. Ex. 6): 450 g/L

Structure (SMILES): CSCC[C@H](N)C(=O)O [Example 14, L-methionine]
- BD (tapped bulk density) of the obtained L-methionine crystals: 600 g/L
- BD (tapped bulk density) of the obtained L-methionine crystals (listed as Ex. 14): 600 g/L

Structure (SMILES): CSCC[C@H](N)C(=O)O [Comparative Example 8, L-methionine, reference compound]
- BD (tapped bulk density) of the obtained L-methionine crystals: 450 g/L
- BD (tapped bulk density) of the obtained L-methionine crystals (listed as Comp. Ex. 8): 450 g/L

Structure (SMILES): CSCC[C@H](N)C(=O)O [Example 19, L-methionine]
- BD (tapped bulk density) of the obtained L-methionine crystals: 750 g/L
- BD (tapped bulk density) of the obtained L-methionine crystals (listed as Ex. 19): 750 g/L

Structure (SMILES): CSCC[C@H](N)C(=O)O [Comparative Example 5, L-methionine, reference compound]
- BD (tapped bulk density) of the obtained L-methionine crystals: 490 g/L
- BD (tapped bulk density) of the obtained L-methionine crystals (listed as Comp. Ex. 5): 490 g/L

Structure (SMILES): CSCC[C@H](N)C(=O)O [Example 11, L-methionine]
- BD (tapped bulk density) of the obtained L-methionine crystals: 550 g/L
- BD (tapped bulk density) of the obtained L-methionine crystals (listed as Ex. 11): 550 g/L

Structure (SMILES): CSCC[C@H](N)C(=O)O [Example 2, L-methionine]
- BD (tapped bulk density) of the obtained L-methionine crystals: 350 g/L
- BD (tapped bulk density) of the obtained L-methionine crystals (listed as Ex. 2): 350 g/L

Structure (SMILES): CSCC[C@H](N)C(=O)O [Example 4, L-methionine]
- BD (tapped bulk density) of the obtained L-methionine crystals: 590 g/L
- BD (tapped bulk density) of the obtained L-methionine crystals (listed as Ex. 4): 590 g/L

Structure (SMILES): CSCC[C@H](N)C(=O)O [Comparative Example 2, L-methionine, reference compound]
- BD (tapped bulk density) of the obtained L-methionine crystals: 520 g/L
- BD (tapped bulk density) of the obtained L-methionine crystals (listed as Comp. Ex. 2): 520 g/L

Structure (SMILES): CSCC[C@H](N)C(=O)O [Example 22, L-methionine]
- BD (tapped bulk density) of the obtained L-methionine crystals: 700 g/L
- BD (tapped bulk density) of the obtained L-methionine crystals (listed as Ex. 22): 700 g/L

Structure (SMILES): CSCC[C@H](N)C(=O)O [Example 13, L-methionine]
- BD (tapped bulk density) of the obtained L-methionine crystals: 530 g/L
- BD (tapped bulk density) of the obtained L-methionine crystals (listed as Ex. 13): 530 g/L

Structure (SMILES): CSCC[C@H](N)C(=O)O [Comparative Example 4, L-methionine, reference compound]
- BD (tapped bulk density) of the obtained L-methionine crystals: 500 g/L
- BD (tapped bulk density) of the obtained L-methionine crystals (listed as Comp. Ex. 4): 500 g/L

— patent publication US10870619B2 (CJ CHEILJEDANG CORPORATION, priority 2016, dated 2020)
